Measurements as given in patent EP2118065B1, “Substituted 1H-benz[de]isoquinoline-1,3-diones” (priority 2007, dated 2008).

How the values were obtained:
HL-60 human leukemia = experiment: MTT in vitro cytotoxicity; settings: Homo sapiens, HL-60, 96 h, read-out: IC50 value Leukemia HL-60
MOLT-4 cells [1] = experiment: Annexin V-FITC/PI flow cytometric analysis of apoptosis; type: cell-based, Human; settings: 6 hrs
Procedure: Events of apoptosis were analyzed using Annexin V-FITC Apoptosis Detection Kit (A 2214 Sigma Aldrich, USA). Human leukemia Cells (MOLT-4, 1x10^6 cells/ml) in 6-well plate were treated with Compound 3f (3 and 5µg/ml), camptothecin (5µM) and incubated for 6 hrs. After incubation, the cells were centrifuged, rinsed with PBS twice and re-suspended in binding buffer (10 mM HEPES/NaOH, pH 7.5 containing 0.14M NaCl and 25 mM CaCl2). An aliquot (500 µl) of suspension was stained with of Annexin V-FITC (5 µl) and Propidium Iodide (10 µl). The cells were stored for 10 minutes at room temperature in the dark and then analyzed by BD-LSR flow cytometer (Becton Dickinson, USA) at two wavelengths to measure fluorescence for of Annexin V & PI binding at 515 and 639 nm.

caspase-3 = experiment: Caspase-3 colorimetric assay in MOLT-4 cells; type: cell-based, Human; settings: 5 µg/ml, 12 hrs
Procedure: Caspase 3 activity was measured by using caspase-3 colorimetric Assay kit (R&D Systems USA). […] Cell lysates were mixed with 10µL of dithiothreitol (DTT) and 50µL reaction buffer (2X) containing 5 µL DEVD-pNA, a caspase-3 substrate, and incubated upto 24 hr at 37°C. Additional controls were included in this assay containing no cell lysate without substrate Enzyme-catalyzed release of pNA was monitored using a microplate reader at 405 nm (Fig. 2). Likewise, Caspase 6 activity was also measured using caspase-6 colorimetric Assay kit (R&D Systems USA). However, the enzyme and enzyme substrate (VEID-pNA) were different (Fig. 3). Treatment of the cells with Compound 3f induced caspase-3/6 activities. […] (Fig 2).

MOLT-4 cells [2] = experiment: Flow cytometric DNA cell cycle analysis (sub-G1 fraction); type: cell-based, Human; settings: 24 hr
Procedure: Effect of DNA content by cell cycle phase distribution was assessed using MOLT-4 cells. […] The incubation period was 3 hrs in case of camptothecin and 24 hrs. in rest of the treatments. The cells were then washed twice with ice-cold PBS, harvested, fixed with ice-cold PBS in 70% ethanol, and stored at -20 °C for 30 min. After fixation, the cells were incubated with RNase A (0.1 mg/ml) at 37°C for 30 min, stained with propidium iodide (50 µg/ml) for 30 min on ice in dark, and then measured for DNA content using BD-LSR Flow cytometer (Becton Dickinson, USA) equipped with electronic doublet, discrimination capability using blue (488nm) excitation from argon laser. Data were collected in list mode on 10,000 events for FL2-A vs. FL2-W and analyzed using Mod Fit 2.0 software (Fig 4). […] The sub-G1 fractions for control and camptothecin were 0.64 (Fig. 4A) and 11.92 % (Fig. 4B).

S-180 [3] = experiment: In vivo tumor growth inhibition study; parameters: species or system mice
Text: Compound 3f was selected for tumor growth inhibition study. 18 mice each were taken for treated and control groups and inoculated with 1 x 10^6 S-180 cells. After sacrificing mice from the respective groups sequentially on days 9, 14 and 19 following drug treatment on day 1-7 at doses indicated, the ascites fluid from peritoneal cavities of animals were quantitatively transferred and the peritoneal cavities were washed with measured volume of physiological saline. The total number of tumor cells were counted and ascites fluid volume were measured. Averages ( x ± S.E.M.) were made of these two parameters and the percentage inhibitions [(1 - T/C) ×100] were calculated for each dose.

S-180 cells = experiment: 3H-thymidine and 3H-uridine incorporation in vitro (DNA and RNA synthesis)
MOLT-4 cells [4] = experiment: Light and transmission electron microscopy of apoptosis; type: cell-based, Human
Procedure: Cell culture and treatment: Human T lymphoblast; acute lymphoblastic leukemia line MOLT-4 was procured from NCCS, Pune, India. The cells were cultured in RPMI-1640 medium supplemented with 10% FCS, 100 units penicillin and 100 µg streptomycin per ml. Cells were grown in CO2 incubator (SHEL-LAB, USA) at 37° C, 90% humidity and 5% CO2 gas environment and were treated during sub-confluent stage with Compound 3f dissolved in DMSO at the concentration of 1, 5 and 10µM while control cells received only the vehicle (DMSO < 0.5%).
Light and Transmission Electron Microscopy: MOLT-4 control, Compound 3f treated cells at different time intervals were washed in phosphate buffered saline, centrifuged at 1500 rpm for ten minutes and the pellets were divided into 1mm^3 pieces and fixed immediately in 2.5% glutaraldehyde in 0.1M phosphate buffer (pH 7.2) for 2 hr at 4°C, post-fixed with 1% OsO4 in the same buffer for 2 hr, dehydrated with acetone, cleared in propylene oxide and embedded in Epon-812^6 [Hayat, M. A. (1981) Principles and Techniques of Electron Microscopy. Biological Applications Vol. 1. Edward Arnold Publishers, London, U.K.] Semithin (1µm) sections were cut, stained with toluidine blue and studied under Olympus Research Microscope (VANOX). The photography was done using Olympus Digital Camera (C4000).
Ultrathin sections of silver colour (60-90 nm) were cut on a LKB ultramicrotome (Ultrotome-IV, mounted on copper grids and stained with uranyl acetate and lead citrate. The sections were viewed and photographed in a JEOL-100CXII electron microscope at 60 kV.
Detection of apoptosis in tissue sections. Cell Tissue Res. 301: 19-31] at different time intervals to study the mechanism of cell death. […] Compound 3f treated MOLT-4 cells, the condensation of the nuclear material, with a marked accumulation of densely stained chromatin was seen. In majority of the treated cells the chromatin was seen typically at the edge of the nucleus. This was accompanied by cell shrinkage and cytoplasmic vacuoles. The disintegration of the nucleus into smaller fragments was also seen (Fig. 7B). […]

S-180 [5] = experiment: In vivo anticancer activity: increase in median survival time; parameters: species or system Swiss albino male mice; settings: S-180, 7 injns.

O=C1c2cccc3c([N+](=O)[O-])ccc(c23)C(=O)N1CCCCl [Compound 3f, 6-Nitro-2-[3-(Chloropropyl)]-1H-benz[de]isoquinoline-1,3-dione]
IC50 (HL-60 human leukemia): 300 nM | late apoptotic cells (Annexin V^+/PI^+) (MOLT-4 cells [1]; 3 µg/ml): 1.05% | total apoptotic cells (MOLT-4 cells [1]; 3 µg/ml): 7.43% | late apoptotic cells (Annexin V^+/PI^+) (MOLT-4 cells [1]; 5 µg/ml): 4.82% | total apoptotic cells (MOLT-4 cells [1]; 5 µg/ml): 18.44% | Caspase-3 activity (caspase-3): maximum at 5 µg/ml at 12 hrs | sub-G1 fraction (apoptotic) (MOLT-4 cells [2]; 1.5 µg/ml): 4.52% | sub-G1 fraction (apoptotic) (MOLT-4 cells [2]; 5 µg/ml): 5.86% | inhibition in S-180 tumor growth (S-180 [3]; 19th day, after drug treatment on day 1-7): about 20% | inhibition in S-180 tumor growth (S-180 [3]; day 9, after drug treatment on day 1-7): 84% | inhibition at 8 µM (S-180 cells; Mus musculus, S-180, read-out: DNA synthesis inhibition (3H-thymidine uptake)): 90% | RNA synthesis inhibition (3H-uridine uptake) (S-180 cells; S-180 cells, 8 µM, 1 hr incubation, with respect to control): 80% | apoptotic cells by light microscopy (MOLT-4 cells [4]; 1µM): no apoptotic cells were observed | apoptotic cells by light microscopy (MOLT-4 cells [4]; 5µM, 24 - 48 hr): only a-few apoptotic cells were observed | apoptotic cells by light microscopy (MOLT-4 cells [4]; 10µM, 36 hrs): seen in majority of cells | MST (S-180 [5]; 30 mg/kg i.p., days 1-7): 25.0 days | MST (S-180 [5]; 60 mg/kg i.p., days 1-7): 29.0 days | MST (S-180 [5]; 60 mg/kg i.p., days 5-11): 21.0 days
